Entries after “also recorded” stand apart in the source; their conditions may differ.
Key:
[1] = test system: PC-3 prostate cancer xenografts; experiment: tumorigenicity assay, PC-3 xenografts; assay type: in vivo, nude mice; conditions: 10 mg/kg, i.p.; for growth of PC-3 prostate cancer xenografts: from day 5 post injection
Method: PC-3 cells (2×10^6/site) were implanted into hindquarters of nude mice. On day 5 post injection, treatment was commenced with 34-mer and 18-mer (10 mg/kg, i.p.).

[2] = test system: Human microvascular endothelial cells; experiment: endothelial cell chemotaxis assay (bFGF-induced migration); assay type: cell-based; conditions: for inhibition of bFGF-induced migration (chemotaxis): peptide at increasing concentrations; for inhibitor activity on bFGF-induced migration compared with native PEDF: vs rhPEDF at 20 nM
Method: The initial testing was done in the endothelial cell chemotaxis assay. Human microvascular endothelial cells to traverse gelatinized microporous membrane up the gradient of bFGF was tested in the absence and in the presence of the 14-, 18- and 23-mer peptides (FIG. 3). Human microvascular endothelial cells were plated on the lower side of gelatinized microporous membrane and allowed to adhere. The peptides (14-, 18 and 23-mer) were added at increasing concentrations to the opposite side of the gelatinized microporous membrane ([…]), alone, or in combination with basic fibroblast growth factor (bFGF, 10 ng/ml). The cells migratied to the opposite side of the membrane were counted in 10 high-powered (100×) fields. Every condition was tested in quadruplicate. bFGF-induced chemotaxis is shown (top line in each graph). Basal migration levels (0.1% bovine serum albumin) are indicated with the dotted line. Triangles (▴) show peptide alone; while squares (▪) show peptide with bFGF. The solid line (below the top line mentioned above) indicates the effect of the recombinant human PEDF (rhPEDF) at 20 nM.
Several truncated variants of P18 (SEQ ID NO:2) were generated, including an 11-mer (NFGYDLYRVRS; SEQ ID NO:102) which has the first 11 bases of P18, and an 8-mer, (NFGYDLYR; SEQ ID NO:119), which has the first 8 bases of P18. These variants were screened in endothelial cell apoptosis and chemotaxis assays, seeking those that inhibit chemotaxis and induce apoptosis with specific activity similar or better than that of P18. In particular, microvascular endothelial cells were plated in inverted modified Boyden chambers, and chemotaxis induced with bFGF (10 ng/ml). The cells migrated to bFGF were counted in 10 high-powered fields. Results for the 8-mer (SEQ ID NO:119) and the 11-mer (SEQ ID NO:102) are shown in FIGS. 12A and 12B respectively.

[3] = test system: angiogenesis; experiment: directed in vivo angiogenesis assay (DIVAA), s.c. matrigel angioreactors; parameters: species or system nude mice; conditions: for anti-angiogenic effect in DIVAA: bFGF 37.5 and VEGF 12.5 ng/ml, day 7
Method: FIGS. 5A and 5B show the results of a corneal angiogenesis assay. The 34 mer and 18-mer peptides were incorporated with bFGF (50 ng/pellet) into slow-release sucralfate pellets, which were surgically implanted into the cornea of anesthetized mice, 0.5-1 mm from the vascular limbus. The responses were scored on day 5 post implantation and the ingrowth of blood vessels from the cornea to the pellet was considered a positive response. The responses were scored as positive corneas of total implanted: statistical significance was evaluated with Fisher's Exact test. P<0.05 was considered significant. […] The peptides were incorporated with a mix of bFGF and VEGF (37.5 and 12.5 ng/ml, respectively) into angioreactors filled with matrigel. The reactors were implanted s.c onto the flanks of the nude mice. On day 7, The reactors were harvested and photographed (5C). Endothelial cells collected from implants by dilution/centrifugation, stained with FITC-lectin and quantified by flow cytometry (5D).
Finally, the peptides were tested in vivo, in the corneal angiogenesis and directed in vivo angiogenesis assay (DIVAA). The 34-mer derivatives were compared in vivo with parental PEDF peptide, the 34-mer. FIG. 5 A, B: Corneal angiogenesis assay: the peptides were incorporated with bFGF (50 ng/pellet) into slow-release sucralfate pellets, which were surgically implanted into the cornea of anesthetized mice, 0.5-1 mm from the vascular limbus. The responses were scored on day 5 post implantation and the ingrowth of blood vessels from the cornea to the pellet was considered a positive response. The responses were scored as positive corneas of total implanted: statistical significance was evaluated with Fisher's Exact test. P<0.05 was considered significant. […] 5C, D. DIVAA of the 34-mer and derivative peptides. The peptides were incorporated with a mix of bFGF and VEGF (37.5 and 12.5 ng/ml, respectively) into angioreactors filled with matrigel. The reactors were implanted s.c onto the flanks of the nude mice. On day 7, the reactors were harvested and photographed (5C). Endothelial cells collected from implants by dilution/centrifugation, stained with FITC-lectin and quantified by flow cytometry (5D).

[4] = test system: Human microvascular endothelial cells; experiment: endothelial cell apoptosis assay (ApopTag / TUNEL); assay type: cell-based; conditions: for induction of endothelial cell apoptosis: HMVEC, overnight, low serum media, with or without bFGF, FIG. 4
Method: Confluent HMVEC cells growing on coverslips were incubated overnight in low serum media (0.2% FBS in MCDB)±PEDF peptides in the presence or absence of bFGF. ApopTag Fluorescein kit (Chemicon) was used to determine apoptotic cells. […] 3-5 fields (10×) were analyzed with epi-fluorescent microscope, and cells were counted using MetaMorph software. Apoptotic (FITC positive) cells were calculated as a % of total cells stained with PI per field.
The ability of the 34-mer fragments to induce endothelial cell apoptosis was next measured (FIG. 4).
In further experiments, human microvascular endothelial cells were treated with PEDF18 (SEQ ID NO:2) and PEDF11 (SEQ ID NO:102). Apoptosis was measured after 24 hours with terminal dUTP Nick-end Labeling (TUNEL) assay. […] It is noted that one advantage of PEDF11 over longer PEDF derivatives is in that this sequence is below critical length so it can be non-immunogenic during continuous applications.

[5] = test system: corneal angiogenesis; experiment: corneal angiogenesis assay; assay type: in vivo, mice; conditions: bFGF 50 ng/pellet; scored day 5
Method: FIGS. 5A and 5B show the results of a corneal angiogenesis assay. The 34 mer and 18-mer peptides were incorporated with bFGF (50 ng/pellet) into slow-release sucralfate pellets, which were surgically implanted into the cornea of anesthetized mice, 0.5-1 mm from the vascular limbus. The responses were scored on day 5 post implantation and the ingrowth of blood vessels from the cornea to the pellet was considered a positive response. The responses were scored as positive corneas of total implanted: statistical significance was evaluated with Fisher's Exact test. P<0.05 was considered significant. […] Endothelial cells collected from implants by dilution/centrifugation, stained with FITC-lectin and quantified by flow cytometry (5D).
Finally, the peptides were tested in vivo, in the corneal angiogenesis and directed in vivo angiogenesis assay (DIVAA). […] The responses were scored on day 5 post implantation and the ingrowth of blood vessels from the cornea to the pellet was considered a positive response. The responses were scored as positive corneas of total implanted: statistical significance was evaluated with Fisher's Exact test. […] Endothelial cells collected from implants by dilution/centrifugation, stained with FITC-lectin and quantified by flow cytometry (5D).

[6] = test system: Mouse renal carcinoma cells (Renca, ATCC); experiment: orthotopic renal cell carcinoma xenograft model (tumor growth and metastases); assay type: in vivo
Method: Mouse renal carcinoma cells (Renca, ATCC) were injected under the kidney capsule (0.5×10^6/site). Animals were randomly divided into 6 groups (8 per group) and the treatment started 5 days after inoculation (intraperitoneal injections). The following treatment groups were included: P18 (SEQ ID NO:2; 10 mg/kg); P18 (60 mg/kg); Rapamycin (R, 0.5 mg/kg); R+P18 (10 mg/kg) and R+P18 (60 mg/kg). The control group was treated with scrambled peptide, YFNGRSSPSNTNTYYVDRL (SEQ ID NO:51). After 17 days of treatment both kidneys were removed. To assess tumor growth, the weight of healthy kidney was subtracted from the weight of tumor-inoculated kidney, for each animal. The difference represents the weight of the tumor.
Metastases formation was also examined in the liver and lungs of the in the control treated animals and the groups treated with P18 and scrambled peptide (FIG. 9). The % affected organs is indicated under the representative images.

[7] = test system: choroidal neovascularization; experiment: laser-induced choroidal neovascularization (CNV) mouse model; assay type: in vivo, mice
Method: This Example describes further characterization of P18 (PEDF18) and fragments thereof. […] Intravitreous injections of 1 μg (n=24), 10 μg (n=24) of PEDF18, or vehicle (n=21) were given at the day of laser photocoagulation-induced rupture of Bruch's membrane. Two weeks after laser induction, mice were euthanized and the area of CNV was measured. […] NV=neovascularization.

Substance | growth of PC-3 prostate cancer xenografts [1] | inhibition of bFGF-induced migration (chemotaxis) ([2]; bFGF 10 ng/ml) | anti-angiogenic effect in DIVAA [3] | induction of endothelial cell apoptosis [4] | inhibitor activity on bFGF-induced migration compared with native PEDF [2] | further results
34-mer: 34-mer PEDF peptide (amino acids 44-77 at the N-terminus), parental PEDF peptide (DPFFKVPVNKLAAAVSNFGYDLYRVRSSMSPTTN) [reference compound] | only marginal effect |  |  |  |  | 
AAAVSNFGYDLYRVRSSTSPTTN [23-mer] |  | comparable to PEDF at low concentrations and lost its inhibitory activity at higher doses | failed to inhibit angiogenesis | failed to induced apoptosis |  | 
DLYRVRSSTSPTTN [14-mer] |  | inhibited bFGF-induced migration in a dose-dependent manner |  | very weak induction of apoptosis | superior to that of native PEDF | 
NFGYDLYRVRS [PEDF11] |  | dose-dependent inhibition |  |  |  | concentration at which chemotaxis is inhibited ([2]; bFGF 10 ng/ml, FIG. 12B): 1 to 10 nM; efficacy compared with P18 ([2]; chemotaxis inhibition and EC apoptosis, vs P18 (FIG. 3)): comparable to that of P18; concentration causing EC apoptosis [4]: 10 to 100 nM
NFGYDLYRVRSSTSPTTN [18-mer] | significantly inhibited the growth | inhibited bFGF-induced migration in a dose-dependent manner | showed the best anti-angiogenic characteristics | more potent than the parental PEDF and as potent as the 34-mer | superior to that of native PEDF | tumor volume ([1]; FIG. 6): substantial reduction in tumor volume; anti-angiogenic effect in corneal angiogenesis assay [5]: showed the best anti-angiogenic characteristics; blocking of VEGF-induced angiogenesis ([3]; in vitro and in vivo in the subcutaneous matrigel plug assays): effectively blocks VEGF-induced angiogenesis; activity in blocking angiogenesis compared with the 34-mer ([3]; mouse, in vivo): more active in blocking angiogenesis than the original 34-mer; tumor weight ([6]; P18 alone, i.p., 17 days of treatment, vs scrambled peptide): significant (P<0.0003) decrease in tumor weight; liver metastases ([6]; P18 treatment, FIG. 9): eradicated liver metastases; area of CNV at laser sites ([7]; intravitreous 1 μg or 10 μg, two weeks after laser induction, vs vehicle): significantly smaller areas of neovascularization; choroidal neovascularization (overall effect) ([7]; mouse, laser-induced, listed as PEDF18): suppresses choroidal neovascularization; also recorded: effectively alleviated laser-induced choroidal neovascularization (CNV)

— patent publication US9096689B2, “Methods and compositions for inhibiting angiogenesis” (NORTHWESTERN UNIVERSITY, priority 2007, dated 2015)
